# From patent publication US20170095522A1, “Compositions Containing Extracts of Curcuma SPP and Zingiber officinale Which Are Useful to Reduce Peripheral Inflammation and Pain” (INDENA S.p.A., priority 2015, published 2017)
# Marks after values point to notes of the source that are not given here.
# Legend:
# [1] = system: patients with grade I or II hip osteoarthritis; assay: WOMAC scores (signs/symptoms of osteoarthritis) in 8-month hip osteoarthritis study; format: in vivo, human
# Protocol: The clinical end-points (WOMAC score, Karnofsky Performance Scale Index and treadmill walking performance) were evaluated for the single agents and for the combination of the two vs. a placebo. […] 100 patients with grade I or II hip osteoarthritis, confirmed by X-ray analysis, were enrolled in the study. The patients were allowed to self-medicate with NSAIDs during the 8-month trial. […] Group C received a combination of curcumin and Zingiber officinale at the same doses as reported above for the single ingredients. The last group received a corresponding placebo. To ensure clinical homogeneity, the main location of the osteoarthritis in these subjects, and the source of most of their signs and symptoms, was in one or both hips. Primary osteoarthritis in one or both hips was diagnosed by X-ray investigation. The subjects had mild to moderate pain not adequately or completely controlled with anti-inflammatory drugs. They had to be able to perform the treadmill walking test and to understand all the questions in the WOMAC questionnaire. The questionnaire developed by the Western Ontario and McMaster Universities was applied to describe and rate the symptoms of OA. The questionnaire produces scores for the various symptoms of OA (WOMAC scores). The status of the OA signs/symptoms was evaluated by the investigator together with the patient on inclusion, and after 1 month, 4 months and 8 months treatment. The variations in the results (i.e. walking distance) were considered parametric. Non-parametric observations (e.g. the WOMAC score) were evaluated with analysis of variance (ANOVA with the Bonferroni correction). Considering the possible intra-individual and inter-individual data variations, at least 40 completing subjects were needed for this type of study (at least 40 subjects who completed the entire follow-up period in each group). This numerical value was established, on the basis of our previous study, with a view to eliminating spontaneous variability and time variations. OA and its related signs/symptoms, even under conditions of relative stability, may have a spontaneous degree of variability associated with periods of improvement. Clinical variations in signs/symptoms, walking distance, oedema and the Karnofsky scale may be due to various clinical and non-clinical (i.e.
# [2] = system: patients with grade I or II hip osteoarthritis; assay: Karnofsky Performance Scale Index in 8-month hip osteoarthritis study; format: in vivo, human
# Protocol: The clinical end-points (WOMAC score, Karnofsky Performance Scale Index and treadmill walking performance) were evaluated for the single agents and for the combination of the two vs. a placebo. […] 100 patients with grade I or II hip osteoarthritis, confirmed by X-ray analysis, were enrolled in the study. The patients were allowed to self-medicate with NSAIDs during the 8-month trial. […] Group C received a combination of curcumin and Zingiber officinale at the same doses as reported above for the single ingredients. The last group received a corresponding placebo. To ensure clinical homogeneity, the main location of the osteoarthritis in these subjects, and the source of most of their signs and symptoms, was in one or both hips. Primary osteoarthritis in one or both hips was diagnosed by X-ray investigation. The subjects had mild to moderate pain not adequately or completely controlled with anti-inflammatory drugs. They had to be able to perform the treadmill walking test and to understand all the questions in the WOMAC questionnaire. The Karnofsky Performance Scale Index was used to classify the patients in terms of functional impairment. The Karnofsky Performance Scale Index can be used to compare the effectiveness of different treatments and to assess the prognosis in individual patients. The lower the Karnofsky score, the worse the patient's functional impairment. The variations in the results (i.e. walking distance) were considered parametric. Non-parametric observations (e.g. the WOMAC score) were evaluated with analysis of variance (ANOVA with the Bonferroni correction). Considering the possible intra-individual and inter-individual data variations, at least 40 completing subjects were needed for this type of study (at least 40 subjects who completed the entire follow-up period in each group). This numerical value was established, on the basis of our previous study, with a view to eliminating spontaneous variability and time variations. OA and its related signs/symptoms, even under conditions of relative stability, may have a spontaneous degree of variability associated with periods of improvement. Clinical variations in signs/symptoms, walking distance, oedema and the Karnofsky scale may be due to various clinical and non-clinical (i.e.
# [3] = system: patients with grade I or II hip osteoarthritis; assay: Treadmill walking test, total pain-free distance; format: in vivo, human; conditions: 3 km/hour, 10% incline
# Protocol: The clinical end-points (WOMAC score, Karnofsky Performance Scale Index and treadmill walking performance) were evaluated for the single agents and for the combination of the two vs. a placebo. […] 100 patients with grade I or II hip osteoarthritis, confirmed by X-ray analysis, were enrolled in the study. The patients were allowed to self-medicate with NSAIDs during the 8-month trial. […] Group C received a combination of curcumin and Zingiber officinale at the same doses as reported above for the single ingredients. The last group received a corresponding placebo. To ensure clinical homogeneity, the main location of the osteoarthritis in these subjects, and the source of most of their signs and symptoms, was in one or both hips. Primary osteoarthritis in one or both hips was diagnosed by X-ray investigation. The subjects had mild to moderate pain not adequately or completely controlled with anti-inflammatory drugs. They had to be able to perform the treadmill walking test and to understand all the questions in the WOMAC questionnaire. […] On inclusion and after 1 month, 4 months and 8 months treatment, the patient's performance was evaluated with the treadmill test at a speed of 3 km/h and an incline of 10%. The total pain-free distance was recorded. […] Non-parametric observations (e.g. the WOMAC score) were evaluated with analysis of variance (ANOVA with the Bonferroni correction). […]
# [4] = cited from earlier work
# [5] = preliminary clinical trials; oral; cited from earlier work
structure (smiles),measurement,setting,value
"COc1cc(/C=C/C(=O)CC(=O)/C=C/c2ccc(O)c(OC)c2)ccc1O [Curcumin, curcumin]",WOMAC Pain mean score,[1]; 1 month treatment,13
same,WOMAC Physical functions mean score,[1]; 1 month treatment,45
same,WOMAC Stiffness mean score,[1]; 1 month treatment,5
same,WOMAC Pain mean score,[1]; R = recruitment (baseline),16
same,WOMAC Physical functions mean score,[1]; R = recruitment (baseline),55
same,WOMAC Stiffness mean score,[1]; R = recruitment (baseline),7
same,"WOMAC pain scores, result in words","[1]; after one month's administration, p<0.05",fell significantly
same,Karnofsky scale (median),"[2]; 1 month treatment, curcumin 1000 mg/day and/or Zingiber officinale extract 100 mg/day",77
same,Karnofsky scale (median),"[2]; 4 months treatment, curcumin 1000 mg/day and/or Zingiber officinale extract 100 mg/day",80*
same,"Karnofsky Scale scores, result in words",[2]; 8-month study,significantly improved
same,Karnofsky scale (median),"[2]; 8 months treatment, curcumin 1000 mg/day and/or Zingiber officinale extract 100 mg/day",81*
same,Karnofsky scale (median),"[2]; Inclusion (baseline), hip osteoarthritis patients",73
same,"Treadmill distance (median), total pain-free distance",[3]; 1 month treatment,100*
same,"Treadmill distance (median), total pain-free distance",[3]; R = recruitment (baseline),77
same,Solubility in water and fats,[4],poorly soluble
same,Bioavailability,[5],low bioavailability
